Experimental data taken from patent EP0029617A1, “Use of tertiary heterocyclic amines as synergists in pesticides; derivatives of cycloamines” (priority 1979, dated 1981).

System: Kornkäfer (sitophilus granarius L)
Test: whole plant or invertebrate
Format: in vivo
Details: for mortality at 1000 µg/mL: read-out: Wirksamkeit in % Substanz allein
Description: Test von tertiären, heterocyclischen Aminen allein und im Gemisch mit Pyrethroiden an Kornkäfern (sitophilus granarius L)
In Petrischalen mit 15 cm Durchmesser mit talcumbepuderten Seitenwänden, um das Entfliehen der Kornkäfer zu verhindern, wurden jeweils 2 ml der Acetonlösungen einpipettiert und durch vorsichtiges Schwenken der Schalen gleichmäßig auf dem Boden verteilt. Nach dem Abdampfen des Acetons und dem Antrocknen der Beläge wurden in jede Schale 25 Kornkäfer eingezählt. Nach einer Stunde wurde jeweils ein 12,5 cm Rundfilter in die Schalen eingelegt, um den Käfern das Befreien aus der Rückenlage zu ermöglichen, was auf der glatten Glasplatte nicht möglich ist. Die lichtscheuen Käfer verkrochen sich mit Vorliebe unter die Filter und blieben so ständig mit den Wirkstoffbelägen in Kontakt. Alle Versuche liefen mit 3 Wiederholungen. Nach 3 h wurden die toten Käfer ausgezählt.
In der Tabelle 3 ist jeweils der Durchschnitt der Summe der 4 Einzelwerte angegeben. 25 tote Kornkäfer entsprechen dabei einer Wirkung von 100 %. Die Temperaturen betrugen während der Tests im Durchschnitt 19 - 21°C. Der synergistische Faktor berechnet sich analog wie in Beispiel 1 angegeben.
Die zu prüfenden tertiären, heterocyclischen Amine wurden - mit 1 mg Wirkstoff pro ml als Acetonlösungen angesetzt. Sie wurden im Verhältnis 1 : 1 mit Ripcord bzw. Talcord, die mit 0,01 mg Wirkstoff pro ml als Acetonlösung vorlagen, gemischt. Die Einzelkomponenten wurden im Verhältnis 1 : 1 mit Aceton gemischt.
Auch bei diesen Versuchen zeigten die Kontrollversuche stets bei Versuchsende eine Mortalität der Kornkäfer von 0 %.
Die synergistische Wirkung der tertiären, heterocyclischen Amine auf die Pyrethroide ist auch dann noch deutlich, wenn das Amin in wesentlich niederen Aufwandmengen eingesetzt wird, als dies in Beispiel 3 beschrieben wurde. Die Ergebnisse sind in der Tabelle 4 zusammengestellt. Dieser Versuch zeigt auch, daß Amine mit insektiziden Eigenschaften, wenn sie in Konzentrationen unterhalb ihres insektiziden Wirkungsbereiches eingesetzt werden, immer noch gute synergistische Wirkungen im Gemisch mit Pyrethroiden zeigen. Die Versuche wurden wie im Beispiel 3 beschrieben mit Kornkäfern durchgeführt. Es wurden lediglich die Konzentrationen der eingesetzten tertiären, heterocyclischen Amine geändert. Für die Verdünnung Pyrethroid : Amin = 1 : 10 wurde das Amin mit 0,1 mg Wirkstoff/ml Acetonlösung eingesetzt. Für die Verdünnung 1 : 5 mit 0,05 mg Wirkstoff/ml.

[1] = amine 1 mg/ml + Ripcord 0,01 mg/ml
[2] = amine 1 mg/ml + Talcord 0,01 mg/ml
[3] = amine 1 mg/ml in Aceton mixed 1 : 1 with Aceton, 2 ml per dish, 25 weevils, dead counted after 3 h
[4] = amine 1 mg/ml mixed 1 : 1 with Ripcord 0,01 mg/ml, 3 h
[5] = amine 1 mg/ml mixed 1 : 1 with Talcord 0,01 mg/ml, 3 h
[6] = Sitophilus granarius, amine 1 mg/ml in Aceton mixed 1 : 1 with Aceton, 2 ml per dish, 25 weevils, dead counted after 3 h
[7] = sitophilus granarius, in vivo, 3 h
[8] = Pyrethroid : Amin 1 : 10, amine 0,1 mg/ml, 180 min

Row | Compound | Synergistischer Faktor bei Ripcord [1] | Synergistischer Faktor bei Talcord [2] | Wirksamkeit in % Substanz allein [3] | Wirksamkeit in % Substanz +Ripcord [4] | Wirksamkeit in % Substanz +Talcord [5] | mortality at 1000 µg/mL [6] [%] | other results
1 | C=CCN1CCCCC1 [N-1-Allyl-piperidin] | 2,32 | 1,36 | 0% | 73,2% | 13,2% |  | 
2 | CCOC(=O)C(CC)N1CCCCC1 (stereo not drawn) [2-N-Piperidino-buttersäure-ethylester] | 1,94 | 5,36 | 0% | 61,2% | 52,0% |  | 
3 | N#CCN1CCCCCC1 [N-Hexamethylenimino-aceto-nitril] | 1,69 | 1,53 | 0% | 53,2% | 14,8% |  | 
4 | CCCCCCCCCCCCCCCCN1CCCCC1CC (stereo not drawn) [N-1-Hexadecyl-2-ethyl-piperidin] | 2,37 | 1,94 |  | 74,8% | 18,8% | 0 | 
5 | CCC1CCCCN1Cc1ccccc1 (stereo not drawn) [N-Benzyl-2-ethyl-piperidin] | 2,50 | 1,53 |  | 78,8% | 14,8% | 0 | 
6 | COc1cc(C=O)cc(CN2CCCCC2)c1O [3-N-(Piperidino-methyl)-4-hydroxid-5-methoxi-benz-aldehyd] | 2,79 | 4,12 | 0% | 88,0% | 40,0% |  | 
7 | OCCN1CCCC1 [2-N-Pyrrolidino-ethanol] | 2,58 | 5,48 | 0% | 81,2% | 53,2% |  | 
8 | C#CCN1CCCC1 [3-N-pyrrolidino-propin] | 1,61 | 1,52 | 0% | 50,8% | 14,8% |  | 
9 | O=C1CCCCC1CN1CCCCC1 (stereo not drawn) [2-N-Piperidino-methyl-cyclo-hexanon] | 1,65 | 1,65 | 18,8% | 70,8% | 34,8% |  | 
10 | CCCCOCCOCCN1CCCCCC1 [N-(2'-Butoxi-diethylether-(2))-hexamethylenimin] |  |  |  |  |  |  | Synergistischer Faktor bei Ripcord (in vivo): 2,50; Synergistischer Faktor bei Talcord (in vivo): 3,30; Wirksamkeit in % Substanz +Ripcord [7]: 78,8%; Wirksamkeit in % Substanz +Talcord [7]: 32,0%; Wirksamkeit in % Substanz allein [7]: 0%
11 | C(CCCCCN1CCCCC1)CCCCN1CCCCC1 [1,10-N,N-Di-piperidino-decan] | 2,41 | 6,06 | 0% | 76,0% | 58,8% |  | 
12 | C(CCCN1CCCC1)CCN1CCCC1 [1,6-N,N-Di-pyrrolidino-hexan] | 2,52 | 4,24 | 0% | 77,2% | 41,2% |  | 
13 | CCCCCCCCN1CCCC1 [N-1-Octyl-pyrrolidin] | 1,78 | 4,12 |  | 56,0% | 40,0% | 0 | 
14 | c1ccc(CN2CCCCC2)cc1 [N-Benzyl-piperidin] |  |  |  | 94,8% | 32,0% | 0 | % Wirkung Substanz +Ripcord [8]: 100,0%; % Wirkung Substanz +Talcord [8]: 73,2%; mortality at 100 µg/mL (Sitophilus granarius, 3 h, amine 0,1 mg/ml (as for Pyrethroid : Amin 1 : 10), read-out: % Wirkung Substanz allein): 0%
15 | CCCCCCCCCCCCN1CCOCC1 [N-1-Dodecyl-morpholin] | 2,76 | 1,53 |  | 86,8% | 14,8% | 0 | 
16 | C(CCCN1CCCCC1)CCN1CCCCC1 [1,6-N,N-Di-piperidino-hexan] | 2,82 |  | 0% | 57,2% | 2,8% |  | 

Row | Compound | Synergistischer Faktor bei Ripcord [1] | Synergistischer Faktor bei Talcord [2] | Wirksamkeit in % Substanz allein [3] | Wirksamkeit in % Substanz +Ripcord [4] | Wirksamkeit in % Substanz +Talcord [5] | mortality at 1000 µg/mL [6] [%] | other results
17 | CCCCCCCCN1CCCCC1 [N-1-Octyl-piperidin] | 1,74 | 1,24 |  | 54,8% | 12,0% | 0 | 
18 | CCCCCCCCCCCCN1CCCCCC1 [N-1-Dodecyl-hexamethylenimin] | 1,59 | 1,03 |  | 64,0% | 24,0% | 14 | 
19 | Clc1ccc(CN2CCCCC2)cc1 [N-4-Chlor-benzyl-piperidin] | 2,37 | 4,82 | 0% | 74,8% | 46,8% |  | 
20 | CCC(CC)N1CCCC1 [Pentyl-(3)-N-pyrrolidin] | 2,67 | 4,82 | 0% | 84,0% | 46,8% |  | 
21 | c1ccc(OCCN2CCOCC2)cc1 [N-(2-Phenoxi-ethyl-(1))-morpholin] | 2,45 | 6,47 | 0% | 77,2% | 62,8% |  | 
22 | CC1(C)C(C=C(Cl)Cl)C1C(=O)OCc1cccc(Oc2ccccc2)c1 (stereo not drawn) [Talcord, reference compound] |  |  |  |  |  |  | Wirksamkeit von Talcord (Talcord alone, 0,01 mg/ml mixed 1 : 1 with Aceton, 3 h): Wirksamkeit von Talcord: 9,7%
23 | c1ccc(C(c2ccccc2)N2CCOCC2)cc1 [N-Diphenyl-methyl-morpholin] | 2,29 | 4,12 | 0% | 72,0% | 40,0% |  | 
24 | CCCCCCCCCC(C)N1CCCC1 (stereo not drawn) [N-2-Undecyl-pyrrolidin] | 1,36 |  |  | 98,8% | 64,0% | 56 | 
25 | CCOCCN1CCCCC1 [N-1-Ethoxi-ethyl-(2)-piperidin] | 1,78 |  | 0% | 56,0% | 0% |  | 
26 | CCCCCCCCCCCCN1CCCC1 [N-1-Dodecyl-pyrrolidin] |  |  |  | 92,0% | 96,0% | 89.3 | 
27 | c1ccc(CN2CCCC2)cc1 [N-Benzyl-pyrrolidin] | 2,45 | 1,65 |  | 77,2% | 16,0% | 0 | 
28 | C1CCC(N2CCCC2)CC1 [N-Cyclohexyl-pyrrolidin] | 2,16 | 1,72 |  | 68,0% | 17,2% | 0 | 
29 | CCCCCN1CCCCC1 [N-1-Pentyl-piperidin] | 1,94 | 2,06 |  | 61,2% | 20,0% | 0 | 
30 | N-Hydrinden-morpholin | 1,40 | 3,17 | 0% | 44,0% | 30,8% |  | 
31 | CC(C)=CCC/C(C)=C\CN1CCCCC1 [cis-8-N-Piperidino-2,6-di-methyl-octadien-(2,6)] | 2,16 | 2,76 | 0% | 68,0% | 26,8% |  | 
